{"source": "patent US6541027B1", "about": "“Lactic acid bacteria with anxiolytic properties and uses thereof” (Compagnie Gervais Danone, priority 1999, dated 2003)", "key": {"[1]": {"tested_on": "SPF Wistar/AF male rats", "assay": "Sedative effect (locomotive and exploratory activity) during the Conditioned Defensive Burying test", "assay_type": "in vivo, rat", "conditions": "Example 2; test 1 on day 6; 5 ml/kg p.o. daily (diazepam 3 mg/kg p.o.)", "experimental": "The tests were carried out according to the protocol described in example 2 above, on one hundred and fifty eight SPF Wistar/AF males (IFFA-CREDO breeding center, 69—St Germain sur Arbresles, France) weighing 260 to 280 g. After a week's familiarization with the laboratory conditions, the rats were randomly divided into 13 treatment groups. The rats of the various groups were handled in the same manner and under the same conditions.\nAll the products were orally administered daily for 6 days at the same times at the doses of 5 ml/kg using syringes equipped with intragastric forced-feeding probes (HARVARD APPARATUS, 91—Les Ulis, France). On the day for the test, they were administered 6 hours before the burying test.\nnumber of […]: the rat adopts the vertical position while resting on its hind legs;\nnumber of passes from one side of the cage to another."}, "[2]": {"tested_on": "SPF Wistar/AF male rats", "assay": "Conditioned Defensive Burying test, overall stress score", "assay_type": "in vivo, rat", "conditions": "for overall stress score during test 2: test 2 on day 8, 6 hours after administration (diazepam 3 mg/kg p.o. daily, 1 hour before test); for overall stress score: 5 ml/kg p.o. daily for 6 days", "experimental": "The anxiolytic effect is evaluated using the Conditioned Defensive Burying model, which was developed from the procedure by J. P. PINEL and D. TREIT (PINEL and TREIT, J. Comp. & Physiol. Psychol., 92, 708-712, 1978; TREIT et al., Pharmacol. Biochem. Behav., 15, 619-626, 1981). This model uses the natural propensity of most rodents to bury themselves from a stressful source of stimulus (TREIT, Pharmacol. Biochem. Behav., 22, 1, 47-52, 1985; MEERT and COLPAERT, Psychopharmacology, 88, 445-450, 1986; CRAFT et al., Pharmacol. Biochem. Behav., 30, 3, 775-780, 1988; TREIT, Pharmacol. Biochem. Behav., 36, 203-205, 1990).\nSeventy two SPF Wistar/AF male rats (IFFA-CREDO breeding center, 69—St-Germain sur l'Arbresle, France) weighing 320 to 340 g were used. On reception, the rats were weighed, marked and divided into groups of 4 in type F polycarbonate cages (48×27×20 cm, U.A.R., 91—Epinay-Sur-Orge, France). The animals were stalled in an air-conditioned animal house, at a temperature of 22-24° C. Food (M25 biscuits, Ets […], 77—Provins, France) and drink were available to the rats ad libitum. They were subjected to a light-darkness cycle of 12 hours (light from 24 h to 12 h).\nAfter a week's familiarization with the laboratory conditions, the 72 rats were randomly divided into 6 groups (n=12). The rats in the different groups were all handled in the same way and under the same conditions.\nHabituation and the tests were carried out in a transparent cage having the dimensions 44×28×18 cm, whose base is covered with sawdust over a thickness of 5 cm. In the middle of a lateral face, an orifice allows the attachment of an electric probe, 2 cm above the level of the sawdust.\nIt is a probe made of plexiglas having the dimensions 7×2×0.5 cm, covered with a copper printed circuit in which the gap between the wires is 1 mm, chosen so that one leg of the rat coming to rest on the probe easily makes contact between them, thus allowing the passage of current.\nThe probe is connected to a manually triggered generator of electric shocks of 0 to 8 mA (OPEN-SYSTEMS, 54—Maxeville, France).\nIn the faintly illuminated experimental room, a video camera was placed in front of the cage of the setup, at a distance of one meter. The camera is connected to a video recorder and to a control monitor, which are placed in an adjacent room with the electric shock generator.\nThe experiment was carried out according to a double blind design.\nDuring the 2 days preceding the first test, the rats were transported from the animal house to the experimental room and introduced into the experimental device in order to habituate them to both the handling and to the cage of the device in the absence of the electrode. Each group of 4 rats was placed in the device for 20 minutes. The sawdust is changed, leveled to a uniform height of 5 cm, before the period of habituation of each of the groups.\nThe electric probe is inserted into the cage before the beginning of the first test. Each rat is placed in the experimental cage on the side opposite the probe.\nDuring the first test (test 1), a single electric shock, of low intensity (2 mA) is delivered to the animal when it places a hind leg for the first time on the probe.\nFollowing the electric shock, the behavior of each rat is recorded for 5 minutes. […] The probe is cleaned after each rat and the sawdust is changed and leveled to a uniform height of 5 cm before the test session for each cage of rats.\nThe products L, 3ST, 3S and 3S+P were orally administered daily at the same times, at the doses of 5 ml/kg by means of syringes provided with intragastric forced-feeding probes (HARVARD APPARATUS, 91—Les Ulis, France). The burying tests (test 1 on day 6 and test 2 on day 8) were carried out 6 hours after the administration of the products.\nThe positive control is diazepam (3 mg/kg), which was suspended in an aqueous solution of methyl cellulose at 1% and was orally administered daily, for the same period. […]"}}, "note": "Entries after “also recorded” stand apart in the source; their conditions may differ."}
{"smiles": "CN1C(=O)CN=C(c2ccccc2)c2cc(Cl)ccc21", "note": "[diazepam]", "values": [{"measurement": "sedative effect during test 1", "setting": "[1]", "result": "sedative effect"}, {"measurement": "overall stress score during test 1", "setting": "[2]; Example 2, 5 ml/kg p.o. daily, test 1 on day 6, 6 hours after administration (diazepam 3 mg/kg p.o. daily, 1 hour before test), vs. control product L", "result": "tends to reduce the overall stress score; also recorded: showed only a trend to reduce the overall stress score"}, {"measurement": "overall stress score during test 2", "setting": "[2]; Example 2, 5 ml/kg p.o. daily, vs. control product L", "result": "not significantly different from the product L"}, {"measurement": "overall stress score during test 2", "setting": "[2]; Example 2, 5 ml/kg p.o. daily, vs. control product L, listed as Diazepam", "result": "no effect which is statistically different from that of the control"}, {"measurement": "phenomenon of tolerance (habituation) between test 1 and test 2", "setting": "[2]; Example 2, daily oral administration, day 6 vs. day 8", "result": "phenomenon of tolerance observed"}, {"measurement": "overall stress score", "setting": "[2]; Example 3, last dose 6 hours before test (diazepam 1-3 mg/kg p.o. over 6 days, 1 hour before test), vs. control product L", "result": "significantly lower overall stress scores; also recorded: significant antistress activity"}, {"measurement": "overall stress score", "setting": "[2]; Example 5, test 1 hour after last dose (diazepam 1-3 mg/kg p.o., 1 hour before test), vs. control product L", "result": "significantly lower than that of the control product L"}]}
